Assays:
wt EryAIII M6 = target: T1, wt EryAIII M6 (Saccharopolyspora erythraea, UniProt Q03133); assay: SDS-PAGE autoradiography of self-loading; format: biochemical; conditions: HEPES pH 7.4, RT; covalent; labelled compound; data not shown
T1 sequence (Q03133 1468-2900 limits assumed): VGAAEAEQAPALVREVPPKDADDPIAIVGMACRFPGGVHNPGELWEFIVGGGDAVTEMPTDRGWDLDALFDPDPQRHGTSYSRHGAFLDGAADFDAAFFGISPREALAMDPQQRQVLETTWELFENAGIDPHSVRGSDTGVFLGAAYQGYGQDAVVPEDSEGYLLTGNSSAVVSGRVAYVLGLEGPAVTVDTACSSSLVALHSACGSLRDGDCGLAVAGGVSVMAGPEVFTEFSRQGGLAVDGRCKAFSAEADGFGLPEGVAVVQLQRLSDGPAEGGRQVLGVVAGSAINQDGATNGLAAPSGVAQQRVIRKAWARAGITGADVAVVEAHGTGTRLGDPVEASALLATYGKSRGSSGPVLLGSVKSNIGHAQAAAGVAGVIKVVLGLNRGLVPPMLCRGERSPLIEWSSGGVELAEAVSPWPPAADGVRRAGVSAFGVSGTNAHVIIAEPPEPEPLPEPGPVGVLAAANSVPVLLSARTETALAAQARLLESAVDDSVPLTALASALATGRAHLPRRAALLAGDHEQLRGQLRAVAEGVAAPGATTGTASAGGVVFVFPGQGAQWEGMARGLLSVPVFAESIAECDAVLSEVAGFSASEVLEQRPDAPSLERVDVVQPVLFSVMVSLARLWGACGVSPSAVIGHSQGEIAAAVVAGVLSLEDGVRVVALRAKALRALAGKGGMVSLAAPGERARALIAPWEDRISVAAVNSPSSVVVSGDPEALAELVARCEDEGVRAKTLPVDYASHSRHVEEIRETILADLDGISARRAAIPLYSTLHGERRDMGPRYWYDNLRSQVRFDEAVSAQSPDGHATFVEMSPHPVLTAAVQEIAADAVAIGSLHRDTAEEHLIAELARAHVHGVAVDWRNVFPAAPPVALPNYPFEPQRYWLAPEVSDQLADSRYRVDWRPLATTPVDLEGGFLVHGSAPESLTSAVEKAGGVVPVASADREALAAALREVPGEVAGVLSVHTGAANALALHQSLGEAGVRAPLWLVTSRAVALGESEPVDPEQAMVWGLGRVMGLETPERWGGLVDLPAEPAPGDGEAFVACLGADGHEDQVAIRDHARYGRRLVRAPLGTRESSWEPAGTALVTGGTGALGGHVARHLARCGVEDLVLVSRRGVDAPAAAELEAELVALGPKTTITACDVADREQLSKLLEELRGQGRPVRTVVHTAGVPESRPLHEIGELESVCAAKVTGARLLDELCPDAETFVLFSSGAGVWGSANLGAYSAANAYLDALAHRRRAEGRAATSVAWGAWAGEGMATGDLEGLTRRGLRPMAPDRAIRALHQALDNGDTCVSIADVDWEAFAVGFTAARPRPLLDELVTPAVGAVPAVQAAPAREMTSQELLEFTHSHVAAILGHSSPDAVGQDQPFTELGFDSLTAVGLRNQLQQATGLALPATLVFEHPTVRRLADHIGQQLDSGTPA

wt PikAIV M6 = wt PikAIV M6 (Streptomyces venezuelae, UniProt Q9ZGI2); assay: SDS-PAGE autoradiography of self-loading; format: biochemical; conditions: 0.4 mM; HEPES pH 7.4, RT, 5 min; covalent; labelled compound
Chain of wt PikAIV M6 (Q9ZGI2 whole entry): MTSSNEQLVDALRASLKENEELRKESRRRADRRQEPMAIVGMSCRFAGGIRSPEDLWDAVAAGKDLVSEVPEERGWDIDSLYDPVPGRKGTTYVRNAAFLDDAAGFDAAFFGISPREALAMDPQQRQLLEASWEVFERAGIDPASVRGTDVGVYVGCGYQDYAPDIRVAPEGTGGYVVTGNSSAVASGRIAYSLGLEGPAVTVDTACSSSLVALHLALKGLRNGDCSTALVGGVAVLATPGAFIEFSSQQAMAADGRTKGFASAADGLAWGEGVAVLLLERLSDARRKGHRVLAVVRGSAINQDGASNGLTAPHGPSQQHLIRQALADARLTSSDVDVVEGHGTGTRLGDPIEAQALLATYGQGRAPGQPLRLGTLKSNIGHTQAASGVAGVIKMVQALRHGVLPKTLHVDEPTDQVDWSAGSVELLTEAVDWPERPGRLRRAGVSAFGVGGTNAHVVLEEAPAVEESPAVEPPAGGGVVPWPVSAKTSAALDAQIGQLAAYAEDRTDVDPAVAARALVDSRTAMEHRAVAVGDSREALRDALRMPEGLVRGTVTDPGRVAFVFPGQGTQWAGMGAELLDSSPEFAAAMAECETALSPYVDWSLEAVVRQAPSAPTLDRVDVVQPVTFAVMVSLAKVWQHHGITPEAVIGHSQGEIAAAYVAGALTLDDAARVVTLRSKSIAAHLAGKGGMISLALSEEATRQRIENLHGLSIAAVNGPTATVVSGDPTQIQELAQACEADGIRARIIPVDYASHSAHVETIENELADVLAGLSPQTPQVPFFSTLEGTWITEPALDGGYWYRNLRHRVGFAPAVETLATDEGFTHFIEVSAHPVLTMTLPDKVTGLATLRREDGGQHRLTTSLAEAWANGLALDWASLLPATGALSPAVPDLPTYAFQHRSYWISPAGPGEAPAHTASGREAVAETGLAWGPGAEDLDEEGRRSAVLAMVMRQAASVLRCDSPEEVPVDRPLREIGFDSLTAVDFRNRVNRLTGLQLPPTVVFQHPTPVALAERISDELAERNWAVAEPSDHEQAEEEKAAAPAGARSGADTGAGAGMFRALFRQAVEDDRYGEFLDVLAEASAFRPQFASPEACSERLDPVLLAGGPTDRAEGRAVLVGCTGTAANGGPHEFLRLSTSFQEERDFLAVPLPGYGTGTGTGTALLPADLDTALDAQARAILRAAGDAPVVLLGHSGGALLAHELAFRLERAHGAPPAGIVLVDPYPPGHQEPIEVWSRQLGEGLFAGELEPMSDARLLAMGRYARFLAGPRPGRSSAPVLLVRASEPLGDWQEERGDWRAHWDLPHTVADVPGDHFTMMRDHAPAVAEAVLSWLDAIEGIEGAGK

**Q.** Which results are given for CC(C(=O)O)C(=O)SCCNC(=O)CCNC(=O)[C@H](O)C(C)(C)COP(=O)(O)OP(=O)(O)OC[C@H]1O[C@@H](n2cnc3c(N)ncnc32)[C@H](O)[C@@H]1OP(=O)(O)O (some centres unmarked) [methylmalonyl-CoA]?
**A.** SDS-PAGE autoradiography of self-loading (wt EryAIII M6): wt EryAIII M6 was able to self-load methylmalonyl-CoA; SDS-PAGE autoradiography of self-loading (wt PikAIV M6): The wt PikAIV M6 was able to self-load and transfer methylmalonyl-CoA, but not malonyl-CoA

From publication PMC2861360 (Chemistry & biology, 2008)
